Source: ChEMBL document CHEMBL1201862, “PubChem BioAssay data set” (2004)
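Interpolation was linear, between the two tested concentrations surrounding the appropriate level; five concentrations were tested over 48 hours in 96-well plates. Here, GI50 denotes the concentration required for 50% inhibition of growth.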 The source made the active and inactive calls. No stated cut-off is given here; in the data, active = GI50 up to about 1.1 µM and inactive = higher.

Tests used:
Assay in all cases: inhibition of tumour cell growth, NCI panel, 48 h
U-251 = system: U-251
PC-3 = system: PC-3
HCT-116 = system: HCT-116
RPMI-8226 = system: RPMI-8226
MCF7 = system: MCF7
OVCAR-8 = system: OVCAR-8
BT-549 = system: BT-549
UACC-257 = system: UACC-257
OVCAR-5 = system: OVCAR-5
SK-MEL-5 = system: SK-MEL-5
K562 = system: K562
NCI/ADR-RES = system: NCI/ADR-RES
KM12 = system: KM12
HCC 2998 = system: HCC 2998
IGROV-1 = system: IGROV-1
MDA-N = system: MDA-N
SN12C = system: SN12C
MDA-MB-435 = system: MDA-MB-435
Malme-3M = system: Malme-3M
HOP-62 = system: HOP-62

Measured: GI50

COc1ccc2nc(N/N=C/c3ccc(C)s3)cc(C)c2c1
inactive: U-251 21.1 µM | PC-3 17.1 µM | HCT-116 4.65 µM | RPMI-8226 11.2 µM | MCF7 18 µM | OVCAR-8 19.5 µM | BT-549 14.9 µM | UACC-257 17.1 µM | OVCAR-5 15.7 µM | SK-MEL-5 15.5 µM | K562 14 µM | NCI/ADR-RES 19.7 µM | KM12 19.7 µM | HCC 2998 16 µM | IGROV-1 26.2 µM | MDA-N 16.3 µM | SN12C 17.9 µM | MDA-MB-435 19 µM | Malme-3M 31 µM | HOP-62 20.1 µM

O=C1CCC(N2C(=O)c3ccccc3C2=O)C(=O)N1 (stereo not given) [THALIDOMIDE]
inactive: U-251 > 100 µM | PC-3 > 100 µM | HCT-116 > 100 µM | RPMI-8226 > 100 µM | MCF7 > 100 µM | OVCAR-8 > 100 µM | BT-549 > 100 µM | UACC-257 > 100 µM | OVCAR-5 > 100 µM | SK-MEL-5 > 100 µM | K562 > 100 µM | NCI/ADR-RES > 100 µM | KM12 > 100 µM | HCC 2998 > 100 µM | IGROV-1 > 100 µM | MDA-N > 100 µM | SN12C > 100 µM | MDA-MB-435 > 100 µM | Malme-3M > 100 µM | HOP-62 > 100 µM
